Calls of active or inactive are those of the source. The rule behind the calls is not given here.
How the values were obtained:
NCI60 = experiment: Cytotoxicity against human NCI60 cells; type: functional, cell-based
DU-145 = experiment: Cytotoxicity against human DU145 cells; type: functional; settings: read-out: ED50 (the source's name)

Q: Which Activity (NCI60) does the source give for `COc1cc([C@@H]2Oc3c(C(C)C)cc4c(=O)cc5c(cc4c3O[C@H]2CO)C=CC(=O)C5(C)C)ccc1O` [BREVITAXIN] here?
A: Its Activity is “Active”.

Q: And the EC50 (DU-145)?
A: The EC50 was 6.8 µM.
